According to patent US12208092B2, “Compositions and methods for administering paltusotine to patients with hepatic impairment” (CRINETICS PHARMACEUTICALS, INC., priority 2023, dated 2025):

Columns and labels:
IGF-1 = assay: suppression of IGF-1 in Beagle dogs, 7 days oral; type: in vivo
[1] = test system: other human somatostatin receptors

N#Cc1cccc(-c2ccc3ncc(-c4cc(F)cc(F)c4)c(N4CCC(N)CC4)c3c2)c1O [paltusotine, 3-[4-(4-amino-1-piperidyl)-3-(3,5-difluorophenyl)-6-quinolyl]-2-hydroxybenzonitrile]
oral doses with sustained suppression of IGF-1 (IGF-1): ≥ 6 mg/kg/day | selectivity over other human somatostatin receptors [1]: > 4000 fold
